These results are taken from PMC12040169 (PLOS Biology, 2025).

The structures appear in SMILES notation.

The nature of the first data set: in vitro. To be noted: human, hela cells, % viability.
As usually defined, the viability is a read-out of living cells in per cent, often relative to untreated cells. For the compound `O=C(Cc1ccccc1)N/N=C/C1CC2CC1CC2C(F)(F)F` (centres unmarked) [CBK021488], the viability at 28.5 h, 10 µM stood at 93%. `O=C(O)c1snnc1-c1ccccc1` [CBK021545]: the viability at 28.5 h, 10 µM was 90.9%. With `O=S1(=O)CCC(Sc2nncc3ccccc23)C1` (centres unmarked) [CBK021586], the viability at 28.5 h, 10 µM was determined as 92.2%. `CC1=NNC(=S)NC(C)(C)C1` [CBK021597]: the viability at 28.5 h, 10 µM is 120%. `Cc1c(C#N)c(=O)ncn1Cc1ccncc1` [CBK021603]: the viability at 28.5 h, 10 µM came to 102%. Same read-out and setting: as for `O=C(C/C=N/OCc1ccccc1)c1sccc1Cl` [CBK021611], the figure is 96%; as for `O=C1N(C2CCCCC2)CC2C(c3ccccc3)ONC12O` (centres unmarked) [CBK021700], 97%. `c1ccc(SCCCSc2ccccn2)cc1` [CBK021704]: the viability at 28.5 h, 10 µM came to 87%. With `CCCCCSc1c(C#N)nc(N2CCOCC2)c2c1CC(C)(C)OC2` [CBK021748], the viability at 28.5 h, 10 µM was found to be 92.1%. As for `OC1CCN(c2ccc(-c3ccccc3)nn2)CC1` [CBK021753], the viability at 28.5 h, 10 µM was determined as 83.9%. As to `O=C(c1ccccc1)n1c(=S)nc2n(c1=S)CCN2` [CBK021794], the viability at 28.5 h, 10 µM was determined as 84.3%. With `O=C1CC(C(=O)O)CN(c2cccs2)C1` (centres unmarked) [CBK021796], the viability at 28.5 h, 10 µM was determined as 92.8%. Still for that read-out and setting: as for `NC1(C(F)(F)F)Oc2cc(Cl)c(Cl)cc2O1` [CBK021805], the figure is 88.5%; as for `O=C(O)c1ccc2c(c1)C(=O)N(C1=NCCS1)C2=O` [CBK021809], 89.6%; as for `CSc1nc(C#N)c(N)c(SC2C=CCCC2)n1` (centres unmarked) [CBK021817], 89.4%. The same measure, in the same setting: as for `c1cn(CC2(Cn3ccnc3)COC2)cn1` [CBK021839], the figure is 108%; as for `CC(=O)Nc1ccc(/C(C)=N/Nc2nc(N3CCCC3)nc(N3CCCC3)n2)cc1` [CBK021877], 89.3%; as for `CC(=O)O/C(N)=N/c1nonc1N` [CBK021885], 105%.

Regarding `c1csc(C2NN=C3C4CCN(CC4)C32)c1` (centres unmarked) [CBK021915], the viability at 28.5 h, 10 µM came to 91.5%.

Consider `COC(=O)c1sccc1N1C(=O)CSCC1=O` [CBK021934], for which the viability at 28.5 h, 10 µM amounted to 103%. Turning to `CNC(=O)C(NC(=S)NC(=O)c1ccc(F)cc1)C(C)(C)C` (centres unmarked) [CBK021945], the viability at 28.5 h, 10 µM was 109%. The same measure, in the same setting: as for `C/C(=N\Nc1cccc2cccnc12)C(C)(C)C` [CBK021957], the figure is 113%. Take `CCSc1nn(CC)c2oc3c(c2c1=S)CC(C)(C)OC3` [CBK021960]: the viability at 28.5 h, 10 µM worked out at 105%. Consider `CC1(C)[C@H]2CC[C@]1(C)[C@@H](OCCNc1ccccc1)C2` [CBK021967], for which the viability at 28.5 h, 10 µM stood at 87.8%. With `FC(F)(F)c1ccc(-c2nnc(C3CC3)o2)cc1` [CBK021992], the viability at 28.5 h, 10 µM turned out to be 86.7%. For `O=S(=O)(CCOc1ccccc1)N(CCOc1ccccc1)C1CCCCC1` [CBK022003], the viability at 28.5 h, 10 µM was 103%. On to `CC(=O)c1cc(CCCO)n(Cc2ccco2)c1C` [CBK022013], for which the viability at 28.5 h, 10 µM came out at 115%. With `S=c1[nH]nc(Cn2ccc(-c3ccccc3)n2)o1` [CBK022019], the viability at 28.5 h, 10 µM is 108%. Same read-out and setting: to `COCCNc1cccc(Cn2c(=O)n(C)c3c2c(=O)nc(OC)n3C)c1` [CBK022052] belongs 84.3%; to `Nc1ncccc1OCCOc1cccnc1N` [CBK022067], 89.3%; to `CCCCN(CCCC)S(=O)(=O)c1nc2nc(C)cc(C)n2n1` [CBK022076], 79.7%. As for `CSc1nc2ncnc(N3CCC(O)CC3)c2s1` [CBK022082], the viability at 28.5 h, 10 µM stood at 84.4%.

For `CC(=O)c1nnnn1C(C)(C)Cc1ccccc1` [CBK022088], the viability at 28.5 h, 10 µM came to 91.3%. As to `CCCC(=O)CCOC(=O)C1=C(C)OC2C1Nc1cc(F)c(F)cc1N2CC` (centres unmarked) [CBK022099], the viability at 28.5 h, 10 µM was found to be 93.4%. On to `O=C(N/N=C/c1ccc[nH]1)C1CC1c1ccccc1` (centres unmarked) [CBK022120], for which the viability at 28.5 h, 10 µM was found to be 98.8%. On to `CCOC(=O)c1cnc(O/N=C(\N)c2ccc(C(C)(C)C)cc2)nc1C(F)(F)F` [CBK022142], for which the viability at 28.5 h, 10 µM was 103%. Turning to `Cc1nc(NC(CC(C)C)C(=O)O)c2nc(C)oc2n1` (centres unmarked) [CBK022157], the viability at 28.5 h, 10 µM amounted to 115%. Consider `Cc1ccc(CCP(=O)(O)CN2CCOCC2)cn1` [CBK022176], for which the viability at 28.5 h, 10 µM was 109%. As to `Cc1cccc(NC(=S)N/N=C/c2sccc2C)c1` [CBK022228], the viability at 28.5 h, 10 µM was determined as 104%.

For the compound `C/C(=N\NC(=O)CC1(C)OCCO1)c1oc(C)cc1C` [CBK022234], the viability at 28.5 h, 10 µM worked out at 99.1%. The same measure, in the same setting: to `CC(Oc1cccc(Cl)c1)n1cnnc1` (centres unmarked) [CBK022246] belongs 100%; to `Cc1nn(Cc2cccc(C(N)=O)c2)c(C)c1Br` [CBK022255], 86.9%. `CCOc1oc2cc(O)ccc2c1C(=O)CSC1CCCCC1` [CBK022262]: the viability at 28.5 h, 10 µM came out at 87.1%.

Take `COc1cccc(C(=O)NCC(C)(C)SCc2ccc(F)cc2)c1` [CBK022322]: the viability at 28.5 h, 10 µM turned out to be 111%. For `Brc1n[nH]c2nc(NCc3ccco3)ncc12` [CBK022327], the viability at 28.5 h, 10 µM was determined as 91.6%. The same measure, in the same setting: to `Cc1ccc2oc(=O)cc(N/N=C(\Cl)C(N)=S)c2c1` [CBK022357] belongs 85.8%.

Regarding `O=C(CC1(C(F)(F)F)NCCN1)c1ccco1` [CBK022373], the viability at 28.5 h, 10 µM was determined as 82.6%. For the compound `CCOC(=O)CN/C(=N/O)c1c(Cl)cccc1Cl` [CBK022374], the viability at 28.5 h, 10 µM stood at 99.6%. As for `CN(C)S(=O)(=O)NCCc1ccc(S(N)(=O)=O)cc1` [CBK022388], the viability at 28.5 h, 10 µM came to 99.5%. As to `Cc1ccc2c(c1)C(C)(c1ccccc1)CC(C)(C)N2C(=O)CSc1nncn1C` (centres unmarked) [CBK022397], the viability at 28.5 h, 10 µM turned out to be 98.8%. For `COc1ccc2ccccc2c1[S+]([O-])NC1CCCCC1` (centres unmarked) [CBK022400], the viability at 28.5 h, 10 µM amounted to 80.7%. In the case of `C=CCn1c(SCC(=O)Nc2ccccn2)nnc1-c1ccc(Br)cc1` [CBK022413], the viability at 28.5 h, 10 µM came to 96.3%. For the compound `COc1cccc(C(=O)Nc2ccc(Br)cc2C(=O)O)c1` [CBK022487], the viability at 28.5 h, 10 µM was 98.7%. For the compound `CS(=O)(=O)N1CC2(CCN(C(=O)[C@@H]3CNC[C@H]3c3ccccc3)CC2)c2ccccc21` [CBK022572], the viability at 28.5 h, 10 µM was 104%. Take `c1ccc(OCCOc2ccc(N3CCNCC3)nn2)cc1` [CBK022577F]: the viability at 28.5 h, 10 µM was 109%.

For `c1ccc2c(c1)NCC21CCNCC1` [CBK022583], the viability at 28.5 h, 10 µM amounted to 101%.

Turning to `O=C1OC[C@@H](c2ccccc2)N1C(=O)[C@@H]1CN(Cc2ccccc2)C[C@H]1c1cc2ccccc2o1` [CBK022599C], the viability at 28.5 h, 10 µM came to 111%.

With `CN(C)c1ccccc1C1(O)CN2CCC1CC2` (centres unmarked) [CBK022620], the viability at 28.5 h, 10 µM worked out at 86.8%. The same measure, in the same setting: to `CC(C)CN1CC2(CCN(C(=O)OCc3ccccc3)CC2)c2ccccc21` [CBK022626C] belongs 106%. On the same count and under the same terms, as for `O=C(OCc1ccccc1)N1CCC2(CC1)CN(CCO)c1ccccc12` [CBK022627], the figure is 105%. Still for that read-out and setting: as for `CCN(CC)C(=O)c1ccc(N)cc1C` [CBK022686C], the figure is 93.5%; as for `CC1=CC(=O)OC1(O)c1ccc(Br)cc1` (centres unmarked) [CBK022687], 91.6%.

Consider `O=C(O)C(CCCN1CCCC1)(c1ccccc1)c1ccccc1` [CBK022695G], for which the viability at 28.5 h, 10 µM was determined as 81.7%. With `C[N+]1(CC(=O)c2ccccc2)C2CCC1CC(OC(=O)C(O)c1ccccc1)C2` (centres unmarked) [CBK022712C], the viability at 28.5 h, 10 µM was determined as 120%. Regarding `CCCC/N=C(\NS(=O)(=O)c1ccc(C)cc1)OCC` [CBK022731], the viability at 28.5 h, 10 µM turned out to be 106%. In the case of `NC(=O)N/N=C/COc1cccc(C(F)(F)F)c1` [CBK022736], the viability at 28.5 h, 10 µM turned out to be 102%. For the compound `CCN(CC)CCOc1cc(=O)oc2ccccc12` [CBK022747C], the viability at 28.5 h, 10 µM came out at 105%. Consider `Cc1ccnc(Nc2nc3ccccc3o2)n1` [CBK022772], for which the viability at 28.5 h, 10 µM amounted to 87.5%. Still for that read-out and setting: as for `CO/N=C\c1c(CO)cnc(C)c1O` [CBK022776], the figure is 98.4%; as for `CCN(CC)C(=O)C1CN2CCc3cc(OC)c(OC)cc3C2CC1OC(C)=O` (centres unmarked) [CBK022778], 110%; as for `OC(c1ccc2c(c1)OCO2)C1CCCCC1N1CCCCCC1` (centres unmarked) [CBK022779C], 100%. The same measure, in the same setting: to `CCOC(=O)N1CCN(CC2CCCCN2)CC1` (centres unmarked) [CBK022780G] belongs 83.4%; to `COC(=O)C(C)CN1CC2CCC(CC2)C1` (centres unmarked) [CBK022785C], 106%; to `COc1ccc(Nc2cc(Cl)ccc2C(=O)O)cn1` [CBK022801], 91.5%. Still for that read-out and setting: to `Cc1cc(=[N+]2CCCCC2)cc(C)o1` [CBK022824I] belongs 96.7%; to `CC(C)(C)CC(C)(C)Nc1nc(N)nc(N)n1` [CBK022832], 101%; to `NC(=O)CC[n+]1ccc2ccccc2c1` [CBK022857C], 110%.

As to `O=C(NC1(CN2CCCCC2)CCCCC1)NS(=O)(=O)c1ccc(Cl)cc1` [CBK022858], the viability at 28.5 h, 10 µM stood at 94.4%. With `O=C(Nc1ncnc2nc[nH]c12)NC1CCCCC1` [CBK022860], the viability at 28.5 h, 10 µM turned out to be 97.7%.

In the case of `Sc1nnnn1-c1ccccc1` [CBK022881G], the viability at 28.5 h, 10 µM was 99.9%. On to `O=C(Oc1cccc2cnccc12)c1ccccc1` [CBK022889C], for which the viability at 28.5 h, 10 µM came to 105%. For `CC(=O)NC(=O)c1cccc(Br)c1` [CBK022890], the viability at 28.5 h, 10 µM is 99.3%. As to `FC(F)(F)c1cccc(CC2CSC(=S)N2)c1` (centres unmarked) [CBK022895], the viability at 28.5 h, 10 µM worked out at 92.2%. Still for that read-out and setting: as for `Cc1noc(C)c1S(N)(=O)=O` [CBK022939], the figure is 84.6%.

Turning to `CC1(C)Sc2nc3ccccc3n2C1=O` [CBK022971], the viability at 28.5 h, 10 µM came to 85.4%.

Regarding `CC1CN(C(C)N2CC(C)OC2=O)C(=O)O1` (centres unmarked) [CBK022981], the viability at 28.5 h, 10 µM was 89.8%.

The same data set, now with this note: human, hela cells, % viability, bulk resorufin, single well.
Regarding `Clc1cncc(N2CCNCC2)c1` [CBK022556F], the viability at 28.5 h, 10 µM was determined as 117%. The same measure, in the same setting: as for `CCC(C(=O)c1c[nH]c2ccc(OC)cc12)N(C)C` (centres unmarked) [CBK022923], the figure is 96%; as for `CCCC(=O)C1(c2ccccc2)CCNCC1` [CBK022936C], 89.3%.
